Data on five compounds can be found in patent publication US20090186915A1, “Compositions and methods for treatment of glioblastoma, gliosarcoma, NSCLC, and head and neck cancer” (Unibioscreen S. A., priority 2006, published 2009).

The structures appear in SMILES notation. pIC50: −log10 of the molar value. Several values for one entry are separate records, joined by “and”; a condition that tells them apart may be missing. Equal values may be shown once. Read-outs that look alike come from different tables or passages of the source.

The subject of one data set is PC-3. As to the kind of experiment: Senescence-associated β-galactosidase staining, PC-3. The format is cell-based, human. The following applies: 20 nM Adriamycin, 72 hours. As to the method:
After the indicated treatments, cells were washed in PBS, fixed for 3 to 5 minutes (at room temperature) in 2% formaldehyde/0.2% glutaraldehyde, washed and incubated at 37° C. (in the absence of CO2) with fresh senescence-associated β-Gal (SA-β-Gal) staining solution: 1 mg/ml of 5-bromo-4-chloro-3-indolyl […] (X-Gal; Sigma). Staining was evident within 2 to 4 hours and maximal after 12 to 16 hours. To detect lysosomal β-Gal, the citric acid/sodium phosphate used was pH 4.0. As described in the study of Dimri et al. [Proc Natl Acad Sci USA. 1995; 92:9363-9367.], after fixing and staining with X-Gal, the number of cells positive for the SA-β-Gal activity (intense blue staining) was then counted independently by two different individuals (on 400 cells/plate). Representative photographs (original magnifications, ×20) of stained cells from different experimental treatments were taken. As a positive control for SA-β-Gal expression, Adriamycin-treated cells were used.
Human PC-3 and DU-145 prostate cancer cells cultured in 0 or 10 μM UNBS5162 or 20 nM Adriamycin for 72 hours were evaluated by SA-β-Gal staining. The data clearly indicate that 10 μM [but not 1 μM or 5×1 μM] […] TMZ, as an inducer of autophagy but not of senescence, was used as a negative control.

Data set [1] deals with platelets, red and white blood cells. Nature of the data set: Compound-induced hematotoxicity and tolerance in mice. The data set is classed as in vivo. The following applies: five times a week for three weeks. As to the method:
We have determined the compound-induced potential hematotoxicity of the compound produced according to example 2 or example 7 on platelets, red and white blood cells in comparison of the effect of amonafide on platelets, red and white blood cells. The effect of amonafide was evaluated at 10 mg/kg and 20 mg/kg, by the intra-peritoneal administration to mice. The administration schedule was five times a week for three consecutive weeks. The effect of the compound produced according to example 2 or example 7 was evaluated at 20 mg/kg, by the intra-venous administration to mice. The administration schedule was three times a week (on Mondays, Wednesdays and Fridays) for five consecutive weeks. The animals were sacrificed 3 days after the last injection. There were 10 mice per group. FIG. 1 illustrates results of this assay for compound-induced hematotoxicity on platelets.

In another data set the test system is P-glycoprotein. Nature of the data set: P-gp ATPase activity (P-gp Drug interaction Assay Kit). The format is biochemical. How it is done: In order to test drug interaction with P-glucoprotein (herein-after referred as P-gp) we used an assay based on the study of modulation of ATPase activity from enriched P-gp membrane vesicle preparation (the following kit has been used: P-gp Drug interaction Assay Kit commercially available from SPI BIO France). P-gp ATPase activity was measured by a spectrophotometric method based on monitoring of ADP formation in the vesicle suspension medium. The basal ATPase activity was defined as the activity determined in the absence of any added drug. […]

Data set [2] relates to human PC-3 orthotopic xenografts. As to the method:
(§1) Orthotopic xenografts were obtained by injecting 2.5×10^6 human PC-3 or DU-145 cells into the prostate of 6-week-old male nu/nu mice (n=9 animals per treatment group). All grafts were performed under anesthesia [saline/Rompun (Bayer, Leverkusen, Germany)/Imalgene (Merial, Lyons, France); 5:1:1 by volume]. The end point in these orthotopic experiments was the survival period of the tumor-bearing mice after the administration of UNBS3157, UNBS5162, or reference anticancer agents (taxol, mitoxantrone, and amonafide). However, for ethical reasons, animals were killed when 20% of body weight had been lost compared to that determined at the time of tumor grafting. All animals were weighed three times a week. […] In the case of UNBS5162 experiments in the PC-3 model, after the sacrifice of animals, tumors were removed from both drug-treated [10 mg/kg, intravenous (i.v.)] and vehicle-treated mice, fixed in buffered formalin, embedded in paraffin, and 5-μm-thick sections taken. These histologic slides were then stained with hematoxylin and eosin for blood vessel counts.

In data set [3] the test system is human DU-145 orthotopic xenografts. As to the kind of experiment: Orthotopic DU-145 prostate cancer xenograft, survival. The data set is classed as in vivo, nu/nu mice. As to conditions: DU-145 orthotopic model. How it is done: as §1
Data set [4] has as its system human A549 NSCLC orthotopic. The following applies: Taxol i.v. 20 mg/kg (1i × 3w). How it is done: The purpose of the present study was to evaluate the in vivo efficacy of UNBS5162 on human A549 NSCLC orthotopic nude mice model. The endpoint in this experiment was the survival period of the tumor-bearing mice following treatment, as indicated.
The experiment comprised 6 groups of II mice, one group with mice receiving the vehicle only (Ct group) and 5 groups receiving the treatments as indicated in the Table 13. UNBS5162 was dosed i.v. at 10 mg/kg (in lactic acid vehicle). Taxol (Paclitaxel 6 mg/mL, Bristol-Myers Squibb) was dosed i.v. at 20 mg/kg.

The next data set relates to PC3. Nature of the data set: MTT overall cell growth, PC3 cells. The data set is classed as cell-based. As to conditions: Homo sapiens, 72 h; PC-3; 3 days of culturing; mean of six determinations; read-out: IC50 (μM) In Vitro Growth Inhibition. As to the method:
Tests were performed in order to rapidly, i.e. within 5 days, measure the effect of the compound of example 2 on the overall cell growth. The test measures the number of metabolically active living cells that are able to transform the yellow product 3-(4,5-dimethylthiazol-2-yl)-2,5-diphenyl tetrazolium bromide (herein referred as MTT) into the blue product formazan dye by mitochondrial reduction. The amount of formazan obtained at the end of the experiment, measured by means of a spectrophotometer, is directly proportional to the number of living cells. Optical density determination thus enables a quantitative measurement of the effect of the investigated compounds as compared to the control condition (untreated cells) and/or to other reference compounds. […]
(§2) After 72 hours of incubation at 37° C. with (experimental conditions) or without (control condition) the compound to be tested, the medium was replaced by 100 μl MTT dissolved in RPMI (1640 without phenol red) at a concentration of 1 mg/ml. […] The micro-wells were shaken for 5 minutes and read on a spectrophotometer at wavelengths of 570 nm (maximum formazan absorbance) and 630 nm (back-ground noise).
For each experimental condition, the mean optical density was calculated, as well as the percentage of remaining living cells in comparison with the control. […]

The next data set concerns U-373MG. As to the kind of experiment: MTT overall cell growth, U-373MG cells. The data set is classed as cell-based. As to conditions: Homo sapiens, 72 h; U373-MG; 3 days of culturing; mean of six determinations; read-out: IC50 (μM) In Vitro Growth Inhibition. As to the method:
(§3) Tests were performed in order to rapidly, i.e. within 5 days, measure the effect of the compound of example 2 on the overall cell growth. The test measures the number of metabolically active living cells that are able to transform the yellow product 3-(4,5-dimethylthiazol-2-yl)-2,5-diphenyl tetrazolium bromide (herein referred as MTT) into the blue product formazan dye by mitochondrial reduction. The amount of formazan obtained at the end of the experiment, measured by means of a spectrophotometer, is directly proportional to the number of living cells. Optical density determination thus enables a quantitative measurement of the effect of the investigated compounds as compared to the control condition (untreated cells) and/or to other reference compounds.
(§4) Six human cancer cell lines described in table 1 were used in the following MTT tests. These cell lines cover six histological cancer types, being prostate, glioma, pancreas, colon, lung and breast cancers. Cells were allowed to grow in 96 well micro-wells with a flat bottom with an amount of 100 μl of cell suspension per well with 1,000 to 4,000 cells/well depending on the cell type used. Each cell line was seeded in a well known MEM 10% serum culture medium. […]
as §2
(§5) For each experimental condition, the mean optical density was calculated, as well as the percentage of remaining living cells in comparison with the control.
(§6) The overall growth of human cancer cell lines was determined by means of the calorimetric MTT (3-[4,5-dimethylthiazol-2-yl]-diphenyl tetrazolium bromide; Sigma) assay, as detailed previously.

The subject of a further data set is BxPC3. Nature of the data set: MTT overall cell growth, BxPC3 cells. The following applies: Homo sapiens, BXPC-3, 72 h; Bx-PC-3; 3 days of culturing; mean of six determinations; read-out: IC50 (μM) In Vitro Growth Inhibition. The format is cell-based. How it is done:
as §3, §4, §2, §5, §6

Another data set deals with DU-145. As to the kind of experiment: MTT colorimetric assay, DU-145 cells. The format is cell-based. The following applies: Homo sapiens, 72 h, 3 days of culturing, mean of six determinations, read-out: IC50 (μM) In Vitro Growth Inhibition. As to the method:
as §6

The next data set concerns Hs683. Nature of the data set: MTT colorimetric assay, Hs683 cells. The format is cell-based. The following applies: Homo sapiens, Hs 683, 72 h, 3 days of culturing, mean of six determinations, read-out: IC50 (μM) In Vitro Growth Inhibition. How it is done:
as §6
(Tetrazolium dyes change colour on reduction, which living cells bring about.)

A further data set concerns HCT-15. As to the kind of experiment: MTT colorimetric assay, HCT-15 cells. The data set is classed as cell-based. As to conditions: Homo sapiens, 72 h, 3 days of culturing, mean of six determinations, read-out: IC50 (μM) In Vitro Growth Inhibition. How it is done:
as §6

The next data set deals with LoVo. As to the kind of experiment: MTT colorimetric assay, LoVo cells. As to conditions: Homo sapiens, 72 h, 3 days of culturing, mean of six determinations, read-out: IC50 (μM) In Vitro Growth Inhibition. The format is cell-based. How it is done: as §6
In another data set the test system is MCF-7. Nature of the data set: MTT colorimetric assay, MCF-7 cells. The format is cell-based. As to conditions: Homo sapiens, MCF7, 72 h, 3 days of culturing, mean of six determinations, read-out: IC50 (μM) In Vitro Growth Inhibition. How it is done:
as §6

A further data set deals with A549. Nature of the data set: MTT colorimetric assay, A549 cells. The format is cell-based. The following applies: Homo sapiens, 72 h, 3 days of culturing, mean of six determinations, read-out: IC50 (μM) In Vitro Growth Inhibition. How it is done: as §6
Data set [5] relates to nine human cancer cell lines. As to the kind of experiment: MTT colorimetric assay, mean of nine cell lines. The data set is classed as cell-based. As to conditions: mean over nine human cancer cell lines, read-out: mean antiproliferative activity IC50. As to the method:
as §6
UNBS3157 and UNBS5162 display weak antiproliferative activity in vitro.

A short description of data set [6]: In vitro stability of UNBS3157 in saline/DMSO. The format is physicochemical. As to conditions: physiological saline/DMSO (95:5 v/v), 37° C.

In general, IC50 refers to the concentration that gives 50% inhibition. As a reminder, the pIC50 is −log10 of the IC50, conventionally taken in molar units.

Regarding `COc1cccc2c1C(=O)c1c(O)c3c(c(O)c1C2=O)C[C@@](O)(C(=O)CO)C[C@@H]3O[C@H]1C[C@H](N)[C@H](O)[C@H](C)O1` [Adriamycin, doxorubicin, reference compound], the SA-β-Gal expression result in the data set with PC-3 was “Limited SA-β-Gal expression”.
For the compound `CN(C)CCN1C(=O)c2cccc3cc(N)cc(c23)C1=O` [amonafide], the “tolerance of chronic administrations” value in data set [1] (10 mg/kg intra-peritoneal) is “tolerated 15 chronic administrations”; in data set [1] (20 mg/kg intra-peritoneal) it was “all animals died before receiving the complete set of 15 administrations”. Also, in the data set on P-glycoprotein (50 μM), the “modulation of basal P-gp ATPase activity” value was “significantly alter the ATPase activity”. In addition, the “% T/C” value in data set [2] (PC-3 orthotopic model, 40 mg/kg p.o., 40 mg/kg) is 103% and 107%; in data set [3] (40 mg/kg orally) it was 138%. Besides, the “activity (survival)” value in data set [3] (20 mg/kg i.v. and lower doses) was “inactive”.
As for `CC(=O)O[C@H]1C(=O)[C@@]2(C)[C@H]([C@H](OC(=O)c3ccccc3)[C@]3(O)C[C@H](OC(=O)[C@H](O)[C@@H](NC(=O)c4ccccc4)c4ccccc4)C(C)=C1C3(C)C)[C@]1(OC(C)=O)CO[C@@H]1C[C@@H]2O` [taxol, reference compound], the “% T/C” value in [3] (20 mg/kg i.v.) is given as 146%. Also, in data set [4], the “T/C (%)” value was found to be 128%.
In the case of `CN(C)CCN1C(=O)c2cccc3cc(NC(=O)NC(=O)C(Cl)(Cl)Cl)cc(c23)C1=O` [UNBS3157, 2,2,2-trichloro-N-[({2-[2-(dimethylamino)ethyl]-1,3-dioxo-2,3-dihydro-1H-benzo[de]isoquinolin-5-yl}amino)carbonyl]acetamide], the IC50 with PC3 was determined as 15.1 µM; with U-373MG, 3.9 µM; with BxPC3, 17.2 µM; with DU-145 it was 23 µM; in the data set on Hs683, 9.9 µM; in the data set on HCT-15, 29.3 µM. Besides, the IC50 in the data set with LoVo was 26.4 µM; in the data set on MCF-7, 44.3 µM; in the data set on A549 it was 8.7 µM. Moreover, in [5], the pIC50 is 4.70. Also, the “modulation of Pgp ATPase activity” value in the data set with P-glycoprotein (100 μM (data not shown)) is recorded as “do not affect Pgp ATPase activity”. The “% T/C” value was determined as 100% in data set [2] (PC-3 orthotopic model, 40 mg/kg p.o.); 151% in data set [2] (PC-3 orthotopic model, 160 mg/kg orally); 143% in data set [3] (20 mg/kg i.v.); 164% in [3] (40 mg/kg orally). Also, in data set [6] (22-hour incubation), the “production of amonafide on hydrolysis” value is reported as “without production of amonafide”. Moreover, the “hydrolyzed to UNBS5162” value in data set [6] (in 270 minutes, 10^−4 M) came out at 90%.
Turning to `O=C1c2c(O)ccc(O)c2C(=O)c2c(NCCNCCO)ccc(NCCNCCO)c21` [mitoxantrone, reference compound], the “therapeutic benefit (survival)” value in data set [2] (PC-3 orthotopic model, mitoxantrone i.v.) is recorded as “failed to contribute any therapeutic benefit”. The toxicity entry in data set [2] (mouse, in vivo, iv, 2.5 mg/kg) is recorded as “highly toxic”.
